The values below come from PubChem BioAssay (NCI).

Among the test systems are KM12 colon; MOLT-4 leukemia; MDA-MB-231 breast; OVCAR-4 ovarian; HOP-62 NSCLC; U251 CNS; OVCAR-3 ovarian; MALME-3M melanoma; EKVX NSCLC; NCI/ADR-RES ovarian.
Holding throughout (experiment): NCI-60 cell line screen, 48 h

Where “and” joins values, the source holds several entries; their conditions need not be identical. Identical values can stand only once.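 96-well plates; 48 h exposure; 5 concentrations. Endpoints by linear interpolation between flanking doses. Not reached: highest tested concentration assigned. GI50: concentration for 50% inhibition of growth. TGI is the concentration that stops growth completely.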

Regarding `CC[C@@]1(O)C(=O)OCc2c1cc1n(c2=O)Cc2cc3cc(OC)ccc3nc2-1`, the GI50 is 0.273 µM in the assay on KM12 colon; 0.0038 µM in the assay with MOLT-4 leukemia; 0.735 µM in the assay on MDA-MB-231 breast; 0.682 µM in the assay with OVCAR-4 ovarian; 0.367 µM and 0.747 µM with OVCAR-3 ovarian; 0.0257 µM in the assay with MALME-3M melanoma. The values for the GI50 with EKVX NSCLC and in the assay with NCI/ADR-RES ovarian were 1.1 µM and 0.0204 µM, respectively. Besides, the TGI is 2.58 µM and 1.54 µM in the assay with KM12 colon; 0.0289 µM in the assay on MOLT-4 leukemia; 0.948 µM in the assay with HOP-62 NSCLC; 0.0541 µM in the assay on U251 CNS; 5.73 µM and 4.54 µM with OVCAR-3 ovarian; 0.548 µM with MALME-3M melanoma. Also, the results for the TGI in the assay with EKVX NSCLC and with NCI/ADR-RES ovarian were over 100 µM and 0.169 µM, respectively.
With `O=C(Oc1ccc([N+](=O)[O-])cc1)N1CCN(Cc2cccc(Oc3ccccc3)c2)CC1`, the GI50 in the assay with KM12 colon was 62.5 µM; in the assay on MOLT-4 leukemia, 38.9 µM; in the assay on MDA-MB-231 breast it was over 100 µM; in the assay on OVCAR-4 ovarian, over 44.8 µM; in the assay with HOP-62 NSCLC, over 100 µM; in the assay on U251 CNS it was over 100 µM. The GI50 with OVCAR-3 ovarian is over 96.2 µM; with MALME-3M melanoma, over 95.3 µM; in the assay on EKVX NSCLC it was 48.6 µM; in the assay with NCI/ADR-RES ovarian, over 100 µM. In addition, the TGI in the assay on KM12 colon, in the assay on MOLT-4 leukemia, with MDA-MB-231 breast, with OVCAR-4 ovarian, in the assay on HOP-62 NSCLC and with U251 CNS was over 100 µM each time. Also, the TGI in the assay with OVCAR-3 ovarian, with MALME-3M melanoma, in the assay with EKVX NSCLC and in the assay with NCI/ADR-RES ovarian was over 100 µM each time.
In the case of `COc1cc(NN=C(c2ccc(O)cc2)c2ccc(O)cc2)c([N+](=O)[O-])cc1[N+](=O)[O-]`, the GI50 is 4.86 µM in the assay with KM12 colon; 6.52 µM in the assay with MOLT-4 leukemia; 11.4 µM in the assay on MDA-MB-231 breast; 12.2 µM in the assay with OVCAR-4 ovarian; 5.29 µM in the assay on HOP-62 NSCLC; 7.79 µM in the assay with U251 CNS. For the same compound, the GI50 with OVCAR-3 ovarian is 1.21 µM; in the assay with MALME-3M melanoma, 17.2 µM; in the assay on EKVX NSCLC, 14.4 µM; with NCI/ADR-RES ovarian it was 13.1 µM. Also, the TGI was 25.7 µM in the assay on KM12 colon; over 100 µM with MOLT-4 leukemia; 25.5 µM with MDA-MB-231 breast; 27 µM in the assay on OVCAR-4 ovarian; 20.3 µM with HOP-62 NSCLC; 20.6 µM with U251 CNS. The TGI amounted to 14.8 µM in the assay with OVCAR-3 ovarian, 31.6 µM in the assay on MALME-3M melanoma, 28.3 µM in the assay on EKVX NSCLC and 51.5 µM in the assay on NCI/ADR-RES ovarian.
On to `CCC(=O)OC1CCn2c1nc1c2C(=O)C(C)=C(N2CC2)C1=O` (configuration not stated), for which the GI50 in the assay with KM12 colon was 0.0242 µM; in the assay on MOLT-4 leukemia, 1.46 µM; in the assay with OVCAR-4 ovarian, 0.293 µM; in the assay with HOP-62 NSCLC, 0.0189 µM; in the assay with U251 CNS, 0.0733 µM; with OVCAR-3 ovarian, 0.0296 µM. Further, the GI50 in the assay with MALME-3M melanoma was 0.0307 µM; in the assay with EKVX NSCLC, 0.305 µM. In addition, the TGI in the assay on KM12 colon was 0.159 µM and 0.363 µM; in the assay on MOLT-4 leukemia it was over 83.6 µM; in the assay on MDA-MB-231 breast it was 3.32 µM; in the assay on OVCAR-4 ovarian it was 0.291 µM and 0.667 µM; in the assay with HOP-62 NSCLC it was 0.0431 µM and 0.143 µM; in the assay on U251 CNS, 0.484 µM and 0.576 µM. The TGI in the assay on OVCAR-3 ovarian is 0.0975 µM and 0.137 µM; in the assay with MALME-3M melanoma, 0.0961 µM and 0.114 µM; with EKVX NSCLC, 1.04 µM and 0.504 µM; with NCI/ADR-RES ovarian it was 0.4 µM.
On to `O=C(O)CCC1COc2ccccc2O1` (configuration not stated), for which the TGI in the assay with KM12 colon, with MOLT-4 leukemia, in the assay on MDA-MB-231 breast, in the assay on OVCAR-4 ovarian, in the assay on HOP-62 NSCLC and with U251 CNS was over 10 µM in each case. Besides, the TGI in the assay on OVCAR-3 ovarian, with MALME-3M melanoma, in the assay on EKVX NSCLC and in the assay with NCI/ADR-RES ovarian was over 10 µM throughout.
Regarding `Nc1nc2c(c3ncccc13)C(c1cccc(Cl)c1)Cc1ncccc1-2` (configuration not stated), the GI50 in the assay with KM12 colon is 0.646 µM; in the assay with MOLT-4 leukemia, 2.43 µM; in the assay on MDA-MB-231 breast, 4.19 µM; with OVCAR-4 ovarian, 5.14 µM; with HOP-62 NSCLC, 2.45 µM; with U251 CNS, 2.17 µM. Moreover, the GI50 was 1.11 µM in the assay with OVCAR-3 ovarian, 15.2 µM with MALME-3M melanoma, 4.9 µM in the assay with EKVX NSCLC and 0.959 µM with NCI/ADR-RES ovarian. Besides, the TGI turned out to be 15.5 µM in the assay with KM12 colon; 50.4 µM with MOLT-4 leukemia; 23.7 µM in the assay on MDA-MB-231 breast; 40.5 µM with OVCAR-4 ovarian; 18.1 µM with HOP-62 NSCLC; 15.4 µM in the assay on U251 CNS. The TGI in the assay with OVCAR-3 ovarian was 4.88 µM; in the assay with MALME-3M melanoma it was 60.4 µM; with EKVX NSCLC, over 100 µM; with NCI/ADR-RES ovarian, 7.5 µM.
On to `O=c1cccc(C#Cc2ccccc2)o1`, for which the GI50 is 5.05 µM in the assay with KM12 colon; 2.77 µM in the assay with MOLT-4 leukemia; 6.05 µM with MDA-MB-231 breast; 18.4 µM in the assay with OVCAR-4 ovarian; 4.63 µM with HOP-62 NSCLC; 9.2 µM in the assay on U251 CNS. Besides, the GI50 is 2.42 µM in the assay on OVCAR-3 ovarian, 5.09 µM in the assay with MALME-3M melanoma, 5.21 µM with EKVX NSCLC and 7.11 µM with NCI/ADR-RES ovarian. The TGI with KM12 colon was 14.6 µM; in the assay with MDA-MB-231 breast, 25.8 µM; with OVCAR-4 ovarian it was 44.5 µM; in the assay on HOP-62 NSCLC, 15.4 µM; with U251 CNS, over 36.4 µM; in the assay on OVCAR-3 ovarian it was 11.1 µM. Besides, the TGI in the assay with MALME-3M melanoma was 16.5 µM; with EKVX NSCLC, 32.1 µM; in the assay on NCI/ADR-RES ovarian, over 26.6 µM.
With `NCCNCC(O)CO` (configuration not stated), the TGI with KM12 colon, in the assay with MOLT-4 leukemia, in the assay on MDA-MB-231 breast, with OVCAR-4 ovarian, with HOP-62 NSCLC and in the assay on U251 CNS was over 100 µM throughout. Besides, the TGI in the assay on OVCAR-3 ovarian, in the assay with MALME-3M melanoma, in the assay on EKVX NSCLC and in the assay on NCI/ADR-RES ovarian was over 100 µM throughout.
`N#CC1C(=N)Cc2ccccc2-c2ccccc21` (configuration not stated): the GI50 in the assay on KM12 colon was 3.43 µM; in the assay with MOLT-4 leukemia, 5 µM; in the assay with MDA-MB-231 breast, 8.88 µM; in the assay on OVCAR-4 ovarian it was 18 µM; in the assay on HOP-62 NSCLC, 4.59 µM; with U251 CNS, 4.15 µM. Further, the GI50 in the assay with OVCAR-3 ovarian is 3.6 µM; in the assay on MALME-3M melanoma, 4.2 µM; with EKVX NSCLC, 4.37 µM; with NCI/ADR-RES ovarian it was 3.33 µM. Further, the TGI is 16.1 µM in the assay on KM12 colon; 43.4 µM in the assay with MOLT-4 leukemia; 35 µM in the assay on MDA-MB-231 breast; over 100 µM with OVCAR-4 ovarian; 56.2 µM in the assay with HOP-62 NSCLC; 20.6 µM in the assay on U251 CNS. The TGI with OVCAR-3 ovarian is 13 µM; with MALME-3M melanoma, 27.4 µM; in the assay with EKVX NSCLC it was over 100 µM; with NCI/ADR-RES ovarian, 28.9 µM.
As to `Nc1ccn([C@H]2C[C@@H](O)[C@@H](CO)S2)c(=O)n1`, the GI50 with KM12 colon is over 100 µM; with MOLT-4 leukemia it was over 100 µM; in the assay with MDA-MB-231 breast, over 100 µM; in the assay with OVCAR-4 ovarian, over 100 µM; with HOP-62 NSCLC, over 32 µM; in the assay with U251 CNS, over 100 µM. Besides, the GI50 was over 100 µM with OVCAR-3 ovarian, over 100 µM in the assay with MALME-3M melanoma, over 100 µM in the assay with EKVX NSCLC and 19.6 µM in the assay on NCI/ADR-RES ovarian. For the same compound, the TGI in the assay with KM12 colon, with MOLT-4 leukemia, with MDA-MB-231 breast, in the assay with OVCAR-4 ovarian, with HOP-62 NSCLC and in the assay on U251 CNS was over 100 µM throughout. Further, the TGI in the assay with OVCAR-3 ovarian, in the assay with MALME-3M melanoma, in the assay on EKVX NSCLC and in the assay with NCI/ADR-RES ovarian was over 100 µM each time.
Take `O=C(O)c1cc2ccccc2c(N=Nc2c([N+](=O)[O-])cc([N+](=O)[O-])cc2S(=O)(=O)O)c1O`: the TGI in the assay with KM12 colon, with MOLT-4 leukemia, with MDA-MB-231 breast, with OVCAR-4 ovarian, with HOP-62 NSCLC and with U251 CNS was over 100 µM throughout. Besides, the TGI in the assay on OVCAR-3 ovarian, with MALME-3M melanoma, with EKVX NSCLC and in the assay with NCI/ADR-RES ovarian was over 100 µM each time.
Turning to `COc1cc2c3c(n(CCCN4CCN(C)CC4)c(=O)c2cc1OC)-c1cc2c(cc1C3=O)OCO2`, the GI50 in the assay on KM12 colon was 12.8 µM; in the assay on MDA-MB-231 breast it was 15.3 µM; with OVCAR-4 ovarian it was 4.17 µM; with HOP-62 NSCLC, 18 µM; in the assay on U251 CNS, 11.4 µM; with OVCAR-3 ovarian, 15.3 µM. In addition, the GI50 with MALME-3M melanoma is 24.8 µM; in the assay on EKVX NSCLC, 17.7 µM; with NCI/ADR-RES ovarian, 1.55 µM. Besides, the TGI with KM12 colon was 29 µM; in the assay on MOLT-4 leukemia, 0.0353 µM; with MDA-MB-231 breast it was 32.4 µM; with OVCAR-4 ovarian it was 18.6 µM; in the assay on HOP-62 NSCLC, 95.8 µM; in the assay with U251 CNS it was 27.5 µM. In addition, the TGI in the assay with OVCAR-3 ovarian came to 30.1 µM; with MALME-3M melanoma, 42.3 µM; in the assay with EKVX NSCLC, 41.1 µM; in the assay with NCI/ADR-RES ovarian, 12.9 µM.
